Data on 9 compounds can be found in US7923465B2, “Cannabinoid receptor ligands, pharmaceutical compositions containing them, and process for their preparation” (priority 2005, dated 2011).

Like-named read-outs stand apart in the source and are kept apart here.

For orientation: melting point means the temperature, or range, at which the solid turns liquid. One may read the IC50 as the concentration that inhibits the measured activity by half.

Data set [1] addresses T1, CB1 (Rattus norvegicus, UniProt P20272). Description: Rat CB1 receptor binding using brain membrane, [3H]SR141716A displacement (Protocol I). Set-up: CB1 receptor present in a rat brain membrane preparation; from tissue; host or cells: rat brain membrane; inhibition: dose or concentration left out as unconfirmed. Conditions: 1 h.
For data set [2], the target named is T2, hCB2 (Homo sapiens, UniProt P34972). Description: In vitro binding assay using hCB2-CHO membranes, [3H]-CP-55,940 displacement (Protocol IV). The arrangement: expressed in transfected cells; host or cells: CHO (hCB2-CHO, generated in-house). Particulars: for inhibition at 0.3 µM: 1 h, read-out: % Displacement Protocol IV. Put shortly: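 Displacement of [3H]-CP-55,940 (0.75 nM) from membranes of CHO cells expressing human CB2 (25-50 μg) was measured in Tris-BSA buffer pH 7.4 with 5 mM MgCl2, 1 mM EDTA, 0.1% BSA, 1 h at 30 °C. Test compounds were at 300 nM final; nonspecific binding defined with 0.5 μM CP-55,940. Values are % displacement of specific binding.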

The target in data set [3] is T2, hCB2. Description: Agonism of CB2 receptors expressed in CHO cells, forskolin cAMP assay (Protocol IX.2). Type of data set: cell-based. The arrangement: expressed in transfected cells; host or cells: CHO (h-CB2/CHO, G418-selected). Conditions: cAMP. Here is the method:
(§1) IX. Assay for Determining Agonist and Antagonist Activity to CB1 and CB2 Receptors
2. Agonism of CB1/CB2 Receptors Expressed in CHO Cells
h-CB1/CHO or h-CB2/CHO cells were grown in HAM's F12 DMEM medium (Sigma) with 10% FBS (Hyclone), 1% penicillin-streptomycin solution and 400 μg/ml of G418 (Sigma). 5000 cells were seeded per well in a 96 well plate and incubated for 24 hours at 37° C. in 5% CO2. On the day of assay, cells were washed with warm Krebs Buffer containing 0.1% fatty acid free (FAF) BSA (Sigma) and re-suspended in the same buffer containing 1 mM IBMX. Test compound or CP 55,940 as a reference compound (30 nM final concentration for CB1 testing and 10 μM of the same for CB2 testing) diluted in FFB+IBMX+Krebs buffer was added to the cells followed by forskolin addition (10 uM final concentration) and incubated for 30 minutes at room temperature. At the end of incubation, cells were lysed using lysis reagent from the cAMP estimation kit and cAMP was quantitated by chemiluminescence method described in the manufacturer's instructions (DiscoveRX). EC50 values were calculated from dose response curves by nonlinear regression analysis using PRISM software.
In general terms: Cyclic AMP is a second messenger, typically raised through Gs and lowered through Gi signalling.

Data set [4] addresses T2, hCB2. Description: Antagonism of CB2 receptors expressed in CHO cells, cAMP assay against CP 55,940 (Protocol IX.1). It counts as cell-based. Conditions: CHO, h-CB2/CHO cells, vs 10 nM CP 55,940. Set-up: expressed in transfected cells; host or cells: CHO (h-CB2/CHO, G418-selected). Here is the method: as §1
(§2) 1. Antagonism of CB1/CB2 Receptors Expressed in CHO Cells.
h-CB1/CHO or h-CB2/CHO cells were grown in HAM's F12 DMEM medium (Sigma) with 10% FBS (Hyclone), 1% penicillin-streptomycin solution and 400 μg/ml of G418 (Sigma). 5000 cells were seeded per well in a 96 well plate and incubated for 24 hours at 37° C. in 5% CO2. On the day of assay, cells were washed with warm Krebs buffer containing 0.1% fatty acid free (FAF) BSA (Sigma) and re-suspended in the same buffer containing 1 mM IBMX. Test antagonist or reference compound (AM 251 (1-(2,4-dichlorophenyl)-5-(4-iodophenyl)-4-methyl-N-(1-piperidyl)pyrazole-3-carboxamide) for CB1 and SR144528 for CB2) diluted in FAFBSA+IBMX+Krebs buffer was added to the cells and incubated for 10 minutes at room temperature. CP 55,940 (30 nM final concentration for CB1 testing and 10 nM of the same for CB2 testing) was added to cells followed by forskolin (10 μM final concentration) and incubated for 30 minutes at room temperature. At the end of incubation, cells were lysed using lysis reagent from the cAMP estimation kit and cAMP was quantitated by the chemiluminescence method described in the manufacturer's instructions (DiscoveRX). EC50 values were calculated from dose response curves by nonlinear regression analysis using PRISM software.

For data set [5], the target named is T3, hCB1 (Homo sapiens, UniProt P21554). Kind of data set: Antagonism of CB1 receptors expressed in CHO cells, cAMP assay against CP 55,940 (Protocol IX.1). Type of data set: cell-based. Set-up: expressed in transfected cells; host or cells: CHO (h-CB1/CHO, G418-selected). Conditions: h-CB1/CHO cells, cAMP, vs 30 nM CP 55,940. The procedure:
as §1, §2
h-CB1/CHO or h-CB2/CHO cells were grown in HAM's F12 DMEM medium (Sigma) with 10% FBS (Hyclone), 1% penicillin-streptomycin solution and 400 μg/ml of G418 (Sigma). 5000 cells were seeded per well in a 96 well plate and incubated for 24 hours at 37° C. in 5% CO2. On the day of assay, cells were washed with warm Krebs buffer containing 0.1% fatty acid free (FAF) BSA (Sigma) and re-suspended in the same buffer containing 1 mM IBMX. […] At the end of incubation, cells were lysed using lysis reagent from the cAMP estimation kit and cAMP was quantitated by the chemiluminescence method described in the manufacturer's instructions (DiscoveRX). EC50 values were calculated from dose response curves by nonlinear regression analysis using PRISM software.

The target in data set [6] is T1, CB1. Description: GTPγS binding assay, CB1 functional assay in rat cerebellar membrane (Protocol VIII). The arrangement: 10 μg rat cerebellum membrane; from tissue; host or cells: rat cerebellum membrane, prepared in-house. It counts as biochemical. Conditions: for activation at 1 µM: 1 h, GTPγS binding over basal, rat cerebellar membrane, tested at 1 uM, read-out: Per Se % Stimulation; for inhibition at 1 µM: GTPγS binding, tested at 1 uM in presence of 1 μM WIN 55,212-2, read-out: % Inhibition of WIN-55212-2 induced stimulation. In outline: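 Rat cerebellar membranes (10 μg) incubated 1 h at 30 °C with 0.2 nM [35S]GTPγS, 50 μM GDP, and compound at 1 μM or 300 nM, alone or with 1 μM WIN 55,212-2, in Tris/MgCl2/EGTA/NaCl pH 7.4. Filter-bound radioactivity counted; percent stimulation calculated against basal specific binding (nonspecific defined by 10 μM GTPγS).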
For orientation: GTPγS resists hydrolysis and so accumulates on activated G proteins.

In data set [7] the target is T3, hCB1. Kind of data set: In vitro binding assay using hCB1-CHO membranes, [3H]-CP-55,940 displacement (Protocol II). The arrangement: expressed in transfected cells; host or cells: CHO (hCB1-CHO, generated in-house). Put shortly:
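Incubated 1 h at 37° C, stopped by rapid vacuum filtration on PEI-precoated GF/B filters, bound radioactivity counted by liquid scintillation.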

Setting [8] is: rat brain membrane, [3H]SR141716A displacement, read-out: % Displacement Protocol I.
Setting [9] is: hCB2-CHO membranes, [3H]-CP-55,940 displacement.
Setting [10] is: hCB2 Agonism IC50, h-CB2/CHO cells.
Where [11] appears, read: h-CB2/CHO cells, read-out: hCB2 Agonism IC50.

T3 sequence (P21554 whole entry): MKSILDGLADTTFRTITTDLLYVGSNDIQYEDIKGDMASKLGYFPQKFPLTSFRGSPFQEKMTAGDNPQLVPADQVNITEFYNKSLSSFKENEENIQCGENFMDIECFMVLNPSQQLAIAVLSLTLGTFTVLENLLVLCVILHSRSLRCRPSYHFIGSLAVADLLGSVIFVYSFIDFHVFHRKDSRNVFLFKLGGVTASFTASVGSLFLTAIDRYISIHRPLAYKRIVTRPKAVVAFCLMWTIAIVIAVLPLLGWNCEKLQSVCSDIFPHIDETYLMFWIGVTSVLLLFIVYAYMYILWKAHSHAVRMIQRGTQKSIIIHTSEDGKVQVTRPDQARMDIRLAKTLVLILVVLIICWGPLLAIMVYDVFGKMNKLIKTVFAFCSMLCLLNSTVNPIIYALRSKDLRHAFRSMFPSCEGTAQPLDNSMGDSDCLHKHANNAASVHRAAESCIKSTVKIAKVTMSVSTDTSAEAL
T2 sequence (P34972 whole entry): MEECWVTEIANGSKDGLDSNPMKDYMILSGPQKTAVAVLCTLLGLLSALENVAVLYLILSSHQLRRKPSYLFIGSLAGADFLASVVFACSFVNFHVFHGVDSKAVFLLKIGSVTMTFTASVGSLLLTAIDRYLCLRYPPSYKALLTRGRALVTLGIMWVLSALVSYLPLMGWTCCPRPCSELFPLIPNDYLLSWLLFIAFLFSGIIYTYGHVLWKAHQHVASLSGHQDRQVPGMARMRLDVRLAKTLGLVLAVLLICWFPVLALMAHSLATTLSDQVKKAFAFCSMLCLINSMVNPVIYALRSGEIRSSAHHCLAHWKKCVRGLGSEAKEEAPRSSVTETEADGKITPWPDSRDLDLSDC
T1 sequence (P20272 whole entry): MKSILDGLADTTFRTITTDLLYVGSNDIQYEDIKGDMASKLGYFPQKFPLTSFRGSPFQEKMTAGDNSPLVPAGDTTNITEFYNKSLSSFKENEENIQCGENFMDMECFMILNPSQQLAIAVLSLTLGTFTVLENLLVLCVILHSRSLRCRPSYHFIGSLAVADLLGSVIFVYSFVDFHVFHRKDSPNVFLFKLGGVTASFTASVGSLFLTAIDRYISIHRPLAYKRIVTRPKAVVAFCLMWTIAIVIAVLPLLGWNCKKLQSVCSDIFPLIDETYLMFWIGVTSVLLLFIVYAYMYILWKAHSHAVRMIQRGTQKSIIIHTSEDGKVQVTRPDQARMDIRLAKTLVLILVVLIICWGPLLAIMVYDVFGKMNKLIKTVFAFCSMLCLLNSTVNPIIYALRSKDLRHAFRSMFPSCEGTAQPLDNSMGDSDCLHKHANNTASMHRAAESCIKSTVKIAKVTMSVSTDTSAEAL

For `O=C(NNc1ccc(F)cc1F)c1nn(-c2ccc(Cl)cc2Cl)c2c1C1CCC2C1` (stereo not drawn) [Example 265, N(3)-[(2,4-Difluorophenyl)amino]-1-(2,4-dichlorophenyl)-4,5,6,7-tetrahydro-1H-4,7-methano-indazole-3-carboxamide], the melting point fell in the range of 157 to 160 °C. On CB1 [1] (setting [8]), the inhibition was found to be 31.6%. In addition, the inhibition at 0.3 µM on hCB2 [2] (setting [9]) was found to be 70.2%. The compound also gave an IC50 against hCB2 [3] (setting [10]) of 0.0231 µM. For the same compound, the inhibition at 10 µM against hCB2 [4] was 27.2%.

The compound `O=C(NC1CCCC1)c1nn(-c2ccc(Cl)cc2)c2c1C1CCC2C1` (stereo not drawn) [Example 212, N(3)-Cyclopentyl-1-(4-chlorophenyl)-4,5,6,7-tetrahydro-1H-4,7-methano-indazole-3-carboxamide] had a melting point of 176 to 178 °C. Besides, the inhibition on CB1 [1] (read-out: % Displacement Protocol I, rat brain membrane, [3H]SR141716A displacement) was 68.4%. For the same compound, the inhibition at 10 µM on hCB1 [5] (at 10 uM, read-out: hCB1 Antagonism) turned out to be 39.1%. Besides, on CB1 [6], the activation at 1 µM is -13.8% and the inhibition at 1 µM turned out to be 97.4%.

Consider `O=C(NC12CC3CC(CC(C3)C1)C2)c1nn(-c2ccc(Cl)cc2)c2c1C1CC3CC(C1)CC2C3` [Example 109, N(7)-(Adamantan-1-yl)-5-(4-chlorophenyl)-5,6-diazatetracyclo[7.3.1.1^3,11.0^4,8]tetradeca-4(8)-6-diene-7-carboxamide], for which, on hCB1 [5] (at 10 uM), the “hCB1 Antagonism” value is recorded as 61.64% at. Further, on hCB2 [2] (setting [9]), the “% Displacement Protocol IV” value amounted to 63.05%. Besides, the “% Displacement Protocol II” value at hCB1 [7] is recorded as 8.36%.

On to `CCCCCNC(=O)c1nn(-c2ccc(F)cc2F)c2c1C1CCC2C1` (stereo not drawn) [Example 306, N5-n-Pentyl-3-(2,4-difluorophenyl)-3,4-diazatricyclo[5.2.1.0^2,6]deca-2(6),4-diene-5-carboxamide], for which the melting point fell in the range of 75 to 78 °C. Also, the inhibition at 0.3 µM at hCB2 [2] worked out at 62.9%. Also, on hCB2 [3] (setting [11]), the IC50 turned out to be 0.0119 µM. Also, the inhibition at 10 µM at hCB2 [4] is 14.4%.

For `O=C(NC1CCCCC1)c1nn(-c2ccccc2Cl)c2c1C1CCC2C1` (stereo not drawn) [Example 206, N(3)-Cyclohexyl-1-(2-chlorophenyl)-4,5,6,7-tetrahydro-1H-4,7-methano-indazole-3-carboxamide], the melting point came to 171 °C. Besides, at CB1 [1] (setting [8]), the inhibition was 27.4%. The inhibition at 0.3 µM on hCB2 [2] (setting [9]) is 71.9%. At hCB2 [3] (setting [10]), this compound had a concentration for half-maximal inhibition (IC50) of 0.0105 µM. This compound gave an inhibition at 10 µM on hCB2 [4] of 16%.

The compound `O=C(NN(C1CCCCC1)C1CCCCC1)c1nn(-c2ccc(Cl)cc2Cl)c2c1C1CCC2C1` (stereo not drawn) [Example 239, N(3)-(N,N-Dicyclohexylamino)-1-(2,4-dichlorophenyl)-4,5,6,7-tetrahydro-1H-4,7-methano-indazole-3-carboxamide] gave a melting point of 127 to 130 °C. At CB1 [1] (setting [8]), the inhibition worked out at 23.5%. In addition, the inhibition at 0.3 µM on hCB2 [2] (setting [9]) was 77.1%. At hCB2 [3] (setting [10]), this compound gave an IC50 of 0.0425 µM. Also, the inhibition at 10 µM against hCB2 [4] is 64.1%.

As for `O=C(NCc1ccc(Cl)cc1Cl)c1nn(-c2ccc(F)cc2F)c2c1C1CCC2C1` (stereo not drawn) [Example 307, N5-(2,4-Dichlorobenzyl)-3-(2,4-difluorophenyl)-3,4-diazatricyclo[5.2.1.0^2,6]deca-2(6),4-diene-5-carboxamide], the melting point is 105 to 108 °C. At hCB2 [2], the inhibition at 0.3 µM was 70.3%. The IC50 at hCB2 [3] (setting [11]) was found to be 0.00081 µM. Moreover, the inhibition at 10 µM against hCB2 [4] stood at 21.6%.

For the compound `O=C(NC12CC3CC(CC(C3)C1)C2)c1nn(-c2ccc(Cl)cc2Cl)c2c1C1CCC2c2ccccc21` (stereo not drawn) [Example 506, N(12)-(Adamantan-1yl)-10-(2,4-dichlorophenyl)-10,11-diazatetracyclo[6.5.2.0^2,7.0^9,13]pentadeca-2,4,6,9(13),11-pentaene-12-carboxamide], the melting point was in the range of 120 to 124 °C. In addition, the inhibition at 0.3 µM on hCB2 [2] stood at 52.4%. Besides, on hCB2 [3] (at 10 uM, h-CB2/CHO cells), the “hCB2 Agonism” value is reported as 0% at 10 uM. The compound also came in with an inhibition at 10 µM against hCB2 [4] of 80.2%.

As for `O=C(NN1CCCCC1)c1nn(-c2ccc(Cl)cc2Cl)c2c1C1CCC2C1` (stereo not drawn) [Example 268, N(5)-piperidino-3-(2′,4′-dichlorophenyl)-3,4-diazatricyclo[5.2.1.0^2,6]deca-2(6),4-diene-5-carboxamide], on CB1 [1] (setting [8]), the inhibition amounted to 41%. At hCB1 [5] (at 1 uM), this compound gave an inhibition at 1 µM of 50.9%. Also, at CB1 [6], the activation at 1 µM came out at 29.1% and the inhibition at 1 µM amounted to 55.3%.
